Earlier results in patent US7014865B1, “Natural formulation for the treatment and prevention of depression, containing St. John's Wort and derivatives of dihydro- and tetrahydrofolic acid” (Merck Patent GmbH, priority 1998, dated 2006).

Tests used:
Conditions in all cases: in vitro
uptake of serotonin = tested on: uptake of serotonin
uptake of dopamine = tested on: uptake of dopamine
uptake of noradrenaline = tested on: uptake of noradrenaline
uptake of GABA = tested on: uptake of GABA
uptake of L-glutamate = tested on: uptake of L-glutamate

hyperforin
potent inhibitor: inhibition of uptake of serotonin (uptake of serotonin) | inhibition of uptake of dopamine (uptake of dopamine) | inhibition of uptake of noradrenaline (uptake of noradrenaline) | inhibition of uptake of GABA (uptake of GABA) | inhibition of uptake of L-glutamate (uptake of L-glutamate)
